In patent US6841661B2, “Glycopeptide antibacterial compounds, compositions containing same and methods of using same” (Princeton Univerisity, priority 1999, dated 2005):

Tests used:
[1] = system: E. faecium CL 5242 (VanA); experiment: microbe, parasite or virus in culture; format: cell-based; set-up: CL5242 (in vitro testing): unit not given here; settings: Tables 7 and 8; unit not given
Source text: (§1) National Committee for Clinical Laboratory Standards (NCCLS) guidelines [Methods for Dilution Antimicrobial Susceptibility Tests for Bacteria that Grow Aerobically-Fourth Edition; Approved Standard (NCCLS Document M7-A4, January 1997)] are used to establish the assay, although variations are made to optimize the published method according to the specific needs of the present investigation.
(§2) The test panel currently includes eight enterococci and 13 staphylococci, which are selected based upon their antibiotic susceptibility profiles. The methicillin-sensitive Staphylococcus aureus (MSSA) strain MB2985 (Smith isolate) is used to assesses the potential for serum protein binding of the compounds. The paired Gram-negative strains ASP #49 (envA-) and ASP #50 (envA+) (M. Salvatore/N. Lee) are included to judge membrane effects. Table 3 presents a detailed description of the strains included in the panel, including some of the sources of the strains of bacteria.
(§3) The glycopeptide antibiotic teicoplanin is included whenever possible.
(§4) TSB, containing 10% HS* for vancomycin intermediate S. aurcus/methicillin-resistant S. aureus (VISA/MRSA) strains, is inoculated from an appropriate source (frozen broth or agar slant) and grown approximately 17 hr at 35° C. with shaking at 220 rpm. Cultures are grown in tubes with a volume of 5 ml for enterococci and 2 ml for all other strains.
(§5) Four milliliter (4 ml) overnight culture is added to 36 ml physiological saline to obtain tenfold dilutions (enterococci). Overnight culture (0.4 ml) is added to 39.6 ml saline to obtain 100-fold dilutions (all strains except enterococci). Diluted cultures are maintained on ice until time of inoculation of test plates.
(§6) The number of CFU/mL is determined on BHI agar plates, although this is not done routinely because titers of overnight cultures are relatively constant. The test media include: • BHI for enterococci and VISA/MRSA; • MH II (i.e., cation-adjusted Mueller-Hinton broth) for MRS, MSS and E. coli.; • MH II+HSA for MSSA is prepared as follows: • a. 2×MHII+86mg/ml HSA • b. Dissolve 4.3 g HSA in 50 ml autoclaved 2x MH II. • c. pH to 7.0 by adding 2M MOPS, sodium. • d. Filter sterilize using 0.22 μm Coming cellulose acetate filter, used because of reported low protein binding. • e. 1×MH II+43 mg/ml HSA • f. Dilute the 2×medium twofold and filter as above. 5.8.6. Preparation of Test Plates
(§7) Using a Denley liquid handling system (or similar automatic device), 100 μ1×medium is added to each well in columns 2-12 of a 96-well microtiter dish. Using a multichannel pipettor, 100 μl 2×medium is added to each well in column 1. Plates may be filled on the day prior to assay, wrapped in plastic bags and refrigerated.
(§8) Vancomycin, Schering 29482, and teicoplanin are prepared on a weight per volume basis using 10 mM 3-(N-morpholino)propane-sulfonic acid (MOPS) buffer pH 7. Test compounds are received in solution in appropriate solvent (typically as 1 mg/ml in DMSO) or are dissolved in appropriate solvent prior to further dilution in 10 mM MOPS buffer, ph7. Consistent with NCCLS guidelines, antibiotics are handled aseptically but are not otherwise sterilized.
(§9) 100 μl appropriately diluted antibiotic solution is added to the first well of the designated row of the 96-well microtiter dish and serially diluted by twofold across the row using the Denley liquid handling system. With the aid of a Dynatech NEC 2000 inoculator, each well of the microtiter dish is inoculated with 1.5 μl diluted overnight culture, yielding approximately 1-5×10^6 CFU/ml for enterococci and approximately 3-7×10^5 CFU/ml for all other strains. Dishes are placed in stacks of no more than five, wrapped in plastic bags and incubated at 35° C. • Indication of result(s) type (% INH, IC50, Zone size, etc.) • MIC=minimum inhibitory concentration ps 5.8.9. Interpretation of the Results on the Basis of Activity […]

[2] = system: E. faecalis CL 4877 (VanB); experiment: microbe, parasite or virus in culture; format: cell-based; set-up: CL4877 (in vitro testing): unit not given here; settings: Tables 7 and 8; unit not given
Source text: as §1, §2, §3, §4, §5, §6, §7, §8, §9

[3] = system: E. faecium CL 4931 (VanA); experiment: microbe, parasite or virus in culture; format: cell-based; set-up: CL4931 (in vitro testing): unit not given here; settings: Tables 7 and 8; unit not given
Source text: as §1, §2, §3, §4, §5, §6, §7, §8, §9

[4] = system: CL 4931, CL 5053, CL 5242 and CL 4877; format: cell-based, E. faecium, E. faecalis; set-up: unit not given here; settings: mean of CL4931, CL5053, CL5242, CL4877; unit not given
Source text: as §1, §2, §3, §4, §5, §6, §7, §8, §9

[5] = system: E. faecium CL 5053 (VanA); experiment: microbe, parasite or virus in culture; format: cell-based; set-up: CL5053 (in vitro testing): unit not given here; settings: Tables 7 and 8; unit not given
Source text: as §1, §2, §3, §4, §5, §6, §7, §8, §9

Compound	CL5242 (in vitro testing) [1]	CL4877 (in vitro testing) [2]	CL4931 (in vitro testing) [3]	Mean [4]	CL5053 (in vitro testing) [5]
CNC(CC(C)C)C(=O)NC1C(=O)NC(CC(N)=O)C(=O)NC2C(=O)NC3C(=O)NC(C(=O)NC(C(=O)O)c4cc(O)cc(O)c4-c4cc3ccc4O)C(O)c3ccc(c(Cl)c3)Oc3cc2cc(c3OC2OC(CNCCO)C(O)C(O)C2OC2CC(C)(NCc3ccc(OCc4ccc(Cl)c(Cl)c4)cc3)C(O)C(C)O2)Oc2ccc(cc2Cl)C1O (centres unmarked) [Compound 146]	1	0.5	8	4.4	8
CNCC1OC(Oc2c3cc4cc2Oc2ccc(cc2Cl)C(O)C2NC(=O)C(NC(=O)C4NC(=O)C(CC(N)=O)NC(=O)C(NC(=O)C(CC(C)C)NC)C(O)c4ccc(c(Cl)c4)O3)c3ccc(O)c(c3)-c3c(O)cc(O)cc3C(C(=O)O)NC2=O)C(OC2CC(C)(NCc3ccc(OCc4ccc(Cl)c(Cl)c4)cc3)C(O)C(C)O2)C(O)C1O (centres unmarked) [Compound 147]	2	4	4	4.5	8
CCCNCC1OC(Oc2c3cc4cc2Oc2ccc(cc2Cl)C(O)C2NC(=O)C(NC(=O)C4NC(=O)C(CC(N)=O)NC(=O)C(NC(=O)C(CC(C)C)NC)C(O)c4ccc(c(Cl)c4)O3)c3ccc(O)c(c3)-c3c(O)cc(O)cc3C(C(=O)O)NC2=O)C(OC2CC(C)(NCc3ccc(OCc4ccc(Cl)c(Cl)c4)cc3)C(O)C(C)O2)C(O)C1O (centres unmarked) [Compound 148]	1	1	8	4.5	8
CNC(CC(C)C)C(=O)NC1C(=O)NC(CC(N)=O)C(=O)NC2C(=O)NC3C(=O)NC(C(=O)NC(C(=O)O)c4cc(O)cc(O)c4-c4cc3ccc4O)C(O)c3ccc(c(Cl)c3)Oc3cc2cc(c3OC2OC(CNCc3ccc(Cl)cc3)C(O)C(O)C2OC2CC(C)(NCc3ccc(OCc4ccc(Cl)c(Cl)c4)cc3)C(O)C(C)O2)Oc2ccc(cc2Cl)C1O (centres unmarked) [Compound 149]	2	0.25	8	4.6	8
C=CCNCC1OC(Oc2c3cc4cc2Oc2ccc(cc2Cl)C(O)C2NC(=O)C(NC(=O)C4NC(=O)C(CC(N)=O)NC(=O)C(NC(=O)C(CC(C)C)NC)C(O)c4ccc(c(Cl)c4)O3)c3ccc(O)c(c3)-c3c(O)cc(O)cc3C(C(=O)O)NC2=O)C(OC2CC(C)(NCc3ccc(OCc4ccc(Cl)c(Cl)c4)cc3)C(O)C(C)O2)C(O)C1O (centres unmarked) [Compound 150]	2	4	8	5.5	8
CNC(CC(C)C)C(=O)NC1C(=O)NC(CC(N)=O)C(=O)NC2C(=O)NC3C(=O)NC(C(=O)NC(C(=O)O)c4cc(O)cc(O)c4-c4cc3ccc4O)C(O)c3ccc(c(Cl)c3)Oc3cc2cc(c3OC2OC(CNC(=O)Cc3ccccc3)C(O)C(O)C2OC2CC(C)(NCc3ccc(OCc4ccc(Cl)c(Cl)c4)cc3)C(O)C(C)O2)Oc2ccc(cc2Cl)C1O (centres unmarked) [Compound 151]	2	0.5	8	6.6	16
CNC(CC(C)C)C(=O)NC1C(=O)NC(CC(N)=O)C(=O)NC2C(=O)NC3C(=O)NC(C(=O)NC(C(=O)O)c4cc(O)cc(O)c4-c4cc3ccc4O)C(O)c3ccc(c(Cl)c3)Oc3cc2cc(c3OC2OC(CNCc3ccccc3Cl)C(O)C(O)C2OC2CC(C)(NCc3ccc(OCc4ccc(Cl)c(Cl)c4)cc3)C(O)C(C)O2)Oc2ccc(cc2Cl)C1O (centres unmarked) [Compound 153]	4	0.12	8	7.0	16
CNC(CC(C)C)C(=O)NC1C(=O)NC(CC(N)=O)C(=O)NC2C(=O)NC3C(=O)NC(C(=O)NC(C(=O)O)c4cc(O)cc(O)c4-c4cc3ccc4O)C(O)c3ccc(c(Cl)c3)Oc3cc2cc(c3OC2OC(CNCC3CCNCC3)C(O)C(O)C2OC2CC(C)(NCc3ccc(OCc4ccc(Cl)c(Cl)c4)cc3)C(O)C(C)O2)Oc2ccc(cc2Cl)C1O (centres unmarked) [Compound 155]	4	1	16	9.3	16
CNC(CC(C)C)C(=O)NC1C(=O)NC(CC(N)=O)C(=O)NC2C(=O)NC3C(=O)NC(C(=O)NC(C(=O)O)c4cc(O)cc(O)c4-c4cc3ccc4O)C(O)c3ccc(c(Cl)c3)Oc3cc2cc(c3OC2OC(CNCC3CCCCO3)C(O)C(O)C2OC2CC(C)(NCc3ccc(OCc4ccc(Cl)c(Cl)c4)cc3)C(O)C(C)O2)Oc2ccc(cc2Cl)C1O (centres unmarked) [Compound 156]	2	4	16	9.5	16
CNC(CC(C)C)C(=O)NC1C(=O)NC(CC(N)=O)C(=O)NC2C(=O)NC3C(=O)NC(C(=O)NC(C(=O)O)c4cc(O)cc(O)c4-c4cc3ccc4O)C(O)c3ccc(c(Cl)c3)Oc3cc2cc(c3OC2OC(CNCCC#N)C(O)C(O)C2OC2CC(C)(NCc3ccc(OCc4ccc(Cl)c(Cl)c4)cc3)C(O)C(C)O2)Oc2ccc(cc2Cl)C1O (centres unmarked) [Compound 157]	4	4	16	10.0	16
CNC(CC(C)C)C(=O)NC1C(=O)NC(CC(N)=O)C(=O)NC2C(=O)NC3C(=O)NC(C(=O)NC(C(=O)O)c4cc(O)cc(O)c4-c4cc3ccc4O)C(O)c3ccc(c(Cl)c3)Oc3cc2cc(c3OC2OC(CNCc3ccc(Cl)c(Cl)c3)C(O)C(O)C2OC2CC(C)(NCc3ccc(OCc4ccc(Cl)c(Cl)c4)cc3)C(O)C(C)O2)Oc2ccc(cc2Cl)C1O (centres unmarked) [Compound 158]	4	4	16	10.0	16
CNC(CC(C)C)C(=O)NC1C(=O)NC(CC(N)=O)C(=O)NC2C(=O)NC3C(=O)NC(C(=O)NC(C(=O)O)c4cc(O)cc(O)c4-c4cc3ccc4O)C(O)c3ccc(c(Cl)c3)Oc3cc2cc(c3OC2OC(CNCC(C)C)C(O)C(O)C2OC2CC(C)(NCc3ccc(OCc4ccc(Cl)c(Cl)c4)cc3)C(O)C(C)O2)Oc2ccc(cc2Cl)C1O (centres unmarked) [Compound 159]	4	4	16	10.0	16
CNC(CC(C)C)C(=O)NC1C(=O)NC(CC(N)=O)C(=O)NC2C(=O)NC3C(=O)NC(C(=O)NC(C(=O)O)c4cc(O)cc(O)c4-c4cc3ccc4O)C(O)c3ccc(c(Cl)c3)Oc3cc2cc(c3OC2OC(CNCCCN3CCCC3)C(O)C(O)C2OC2CC(C)(NCc3ccc(OCc4ccc(Cl)c(Cl)c4)cc3)C(O)C(C)O2)Oc2ccc(cc2Cl)C1O (centres unmarked) [Compound 160]	4	16	16	13.0	16
